Experimental data as given in paper PMC4767141, “Discovery of Potent, Orally Bioavailable, Small-Molecule Inhibitors of WNT Signaling from a Cell-Based Pathway Screen” (Journal of Medicinal Chemistry, 2015).

Key:
[1] = tested on: α2 (non-selective); test: CEREP binding panel; details: 10 μM, antagonist radioligand
[2] = molecular target: T1, β2 (h) (Homo sapiens, UniProt P07550); test: CEREP binding panel; details: agonist radioligand, read-out: % Inhibition of Control Specific Binding
T1 construct: purchased Millipore KinaseProfiler (kinases); Cerep (receptors and ion channels)

[3] = molecular target: T2, CB1 (h) (Homo sapiens, UniProt P21554); test: CEREP binding panel; details: agonist radioligand, read-out: % Inhibition of Control Specific Binding
T2 construct: purchased Millipore KinaseProfiler (kinases); Cerep (receptors and ion channels)

[4] = molecular target: T3, D1 (h) (Homo sapiens, UniProt P21728); test: CEREP binding panel; details: antagonist radioligand, read-out: % Inhibition of Control Specific Binding
T3 construct: purchased Millipore KinaseProfiler (kinases); Cerep (receptors and ion channels)

[5] = molecular target: T4, H1 (h) (Homo sapiens, UniProt P35367); test: CEREP binding panel; details: antagonist radioligand, read-out: % Inhibition of Control Specific Binding
T4 construct: purchased Millipore KinaseProfiler (kinases); Cerep (receptors and ion channels)

[6] = molecular target: T5, MC4 (h) (Homo sapiens, UniProt P32245); test: CEREP binding panel; details: agonist radioligand, read-out: % Inhibition of Control Specific Binding
T5 construct: purchased Millipore KinaseProfiler (kinases); Cerep (receptors and ion channels)

[7] = molecular target: T6, M3 (h) (Homo sapiens, UniProt P20309); test: CEREP binding panel; details: antagonist radioligand, read-out: % Inhibition of Control Specific Binding
T6 construct: purchased Millipore KinaseProfiler (kinases); Cerep (receptors and ion channels)

[8] = molecular target: T7, NK2 (h) (Homo sapiens, UniProt P21452); test: CEREP binding panel; details: agonist radioligand, read-out: % Inhibition of Control Specific Binding
T7 construct: purchased Millipore KinaseProfiler (kinases); Cerep (receptors and ion channels)

[9] = molecular target: T8, δ2 (DOP) (h) (Homo sapiens, UniProt P41143); test: CEREP binding panel; details: agonist radioligand, read-out: % Inhibition of Control Specific Binding
T8 construct: purchased Millipore KinaseProfiler (kinases); Cerep (receptors and ion channels)

[10] = molecular target: T9, κ (KOP) (Rattus norvegicus, UniProt P34975); test: CEREP binding panel; details: agonist radioligand, read-out: % Inhibition of Control Specific Binding
T9 construct: purchased Millipore KinaseProfiler (kinases); Cerep (receptors and ion channels)

[11] = molecular target: T10, 5-HT2A (h) (Homo sapiens, UniProt P28223); test: CEREP binding panel; details: antagonist radioligand, read-out: % Inhibition of Control Specific Binding
T10 construct: purchased Millipore KinaseProfiler (kinases); Cerep (receptors and ion channels)

[12] = molecular target: T11, 5-HT5a (h) (Homo sapiens, UniProt P47898); test: CEREP binding panel; details: agonist radioligand, read-out: % Inhibition of Control Specific Binding
T11 construct: purchased Millipore KinaseProfiler (kinases); Cerep (receptors and ion channels)

[13] = molecular target: T12, VPAC1 (VIP1) (h) (Homo sapiens, UniProt P32241); test: CEREP binding panel; details: agonist radioligand, read-out: % Inhibition of Control Specific Binding
T12 construct: purchased Millipore KinaseProfiler (kinases); Cerep (receptors and ion channels)

[14] = molecular target: T13, dopamine transporter (h) (Homo sapiens, UniProt Q01959); test: CEREP binding panel; details: antagonist radioligand, read-out: % Inhibition of Control Specific Binding
T13 construct: purchased Millipore KinaseProfiler (kinases); Cerep (receptors and ion channels)

[15] = molecular target: T14, ARK5 (Homo sapiens, UniProt O60285); test: Millipore kinase panel; type: biochemical; details: read-out: % Control
T14 construct: purchased Millipore KinaseProfiler (kinases); Cerep (receptors and ion channels)
T14 sequence (O60285 whole entry): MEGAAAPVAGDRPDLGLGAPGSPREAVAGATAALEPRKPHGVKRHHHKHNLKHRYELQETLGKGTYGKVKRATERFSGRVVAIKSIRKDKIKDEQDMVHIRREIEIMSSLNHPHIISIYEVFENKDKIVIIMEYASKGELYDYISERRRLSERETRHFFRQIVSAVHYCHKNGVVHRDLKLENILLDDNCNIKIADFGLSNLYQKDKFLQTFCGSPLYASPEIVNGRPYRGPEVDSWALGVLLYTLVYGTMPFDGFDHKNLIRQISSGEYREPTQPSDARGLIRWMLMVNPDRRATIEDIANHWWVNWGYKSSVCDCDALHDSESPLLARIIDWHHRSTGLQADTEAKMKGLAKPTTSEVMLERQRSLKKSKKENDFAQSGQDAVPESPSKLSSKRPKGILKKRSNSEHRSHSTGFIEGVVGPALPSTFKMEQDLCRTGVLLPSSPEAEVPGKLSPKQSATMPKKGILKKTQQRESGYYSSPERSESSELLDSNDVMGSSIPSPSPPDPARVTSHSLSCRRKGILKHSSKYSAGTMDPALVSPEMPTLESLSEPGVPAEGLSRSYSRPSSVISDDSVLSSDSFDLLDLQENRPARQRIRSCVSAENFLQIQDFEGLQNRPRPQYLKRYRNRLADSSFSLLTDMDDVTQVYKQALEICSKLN

[16] = molecular target: T15, ASK1 (Homo sapiens, UniProt Q99683); test: Millipore kinase panel; type: biochemical; details: read-out: % Control
T15 construct: purchased Millipore KinaseProfiler (kinases); Cerep (receptors and ion channels)

[17] = tested on: BLK; test: Millipore kinase panel; type: biochemical; details: 1 μM, ATP at Km
[18] = molecular target: T16, CDK5/P25 (Homo sapiens, UniProt Q00535); test: Millipore kinase panel; type: biochemical; details: read-out: % Control
T16 construct: purchased Millipore KinaseProfiler (kinases); Cerep (receptors and ion channels)

[19] = molecular target: T17, CDK6/CYCLIND3 (Homo sapiens, UniProt Q00534); test: Millipore kinase panel; type: biochemical; details: read-out: % Control
T17 construct: purchased Millipore KinaseProfiler (kinases); Cerep (receptors and ion channels)

[20] = molecular target: T18, EPHA2 (Homo sapiens, UniProt P29317); test: Millipore kinase panel; type: biochemical; details: read-out: % Control
T18 construct: purchased Millipore KinaseProfiler (kinases); Cerep (receptors and ion channels)

[21] = molecular target: T19, FGFR2 (Homo sapiens, UniProt P21802); test: Millipore kinase panel; type: biochemical; details: read-out: % Control
T19 construct: purchased Millipore KinaseProfiler (kinases); Cerep (receptors and ion channels)

[22] = molecular target: T20, FLT1 (Homo sapiens, UniProt P17948); test: Millipore kinase panel; type: biochemical; details: read-out: % Control
T20 construct: purchased Millipore KinaseProfiler (kinases); Cerep (receptors and ion channels)

[23] = molecular target: T21, FLT3 (Homo sapiens, UniProt P36888); test: Millipore kinase panel; type: biochemical; details: read-out: % Control
T21 construct: purchased Millipore KinaseProfiler (kinases); Cerep (receptors and ion channels)

[24] = molecular target: T22, FMS (Homo sapiens, UniProt P07333); test: Millipore kinase panel; type: biochemical; details: read-out: % Control
T22 construct: purchased Millipore KinaseProfiler (kinases); Cerep (receptors and ion channels)

[25] = molecular target: T23, IRAK4 (Homo sapiens, UniProt Q9NWZ3); test: Millipore kinase panel; type: biochemical; details: read-out: % Control
T23 construct: purchased Millipore KinaseProfiler (kinases); Cerep (receptors and ion channels)

[26] = molecular target: T24, MET (Homo sapiens, UniProt P08581); test: Millipore kinase panel; type: biochemical; details: read-out: % Control
T24 construct: purchased Millipore KinaseProfiler (kinases); Cerep (receptors and ion channels)

[27] = molecular target: T25, MSK1 (Homo sapiens, UniProt O75582); test: Millipore kinase panel; type: biochemical; details: read-out: % Control
T25 construct: purchased Millipore KinaseProfiler (kinases); Cerep (receptors and ion channels)

[28] = molecular target: T26, MSSK1 (Homo sapiens, UniProt Q9UPE1); test: Millipore kinase panel; type: biochemical; details: read-out: % Control
T26 construct: purchased Millipore KinaseProfiler (kinases); Cerep (receptors and ion channels)
T26 sequence (Q9UPE1 whole entry): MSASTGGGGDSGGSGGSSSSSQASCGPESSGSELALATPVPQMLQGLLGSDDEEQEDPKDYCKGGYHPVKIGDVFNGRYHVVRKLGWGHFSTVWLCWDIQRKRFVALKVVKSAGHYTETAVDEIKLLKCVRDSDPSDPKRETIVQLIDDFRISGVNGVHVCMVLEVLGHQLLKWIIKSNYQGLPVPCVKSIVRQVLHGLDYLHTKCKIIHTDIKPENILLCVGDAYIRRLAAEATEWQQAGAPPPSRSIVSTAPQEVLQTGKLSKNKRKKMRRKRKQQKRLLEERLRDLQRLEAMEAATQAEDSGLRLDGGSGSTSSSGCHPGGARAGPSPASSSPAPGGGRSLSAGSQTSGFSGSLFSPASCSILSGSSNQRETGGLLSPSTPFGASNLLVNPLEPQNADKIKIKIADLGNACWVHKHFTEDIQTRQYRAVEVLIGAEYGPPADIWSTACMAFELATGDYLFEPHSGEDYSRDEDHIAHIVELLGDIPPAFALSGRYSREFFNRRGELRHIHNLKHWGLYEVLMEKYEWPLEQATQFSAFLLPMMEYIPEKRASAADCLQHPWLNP

[29] = molecular target: T27, MST2 (Homo sapiens, UniProt Q13188); test: Millipore kinase panel; type: biochemical; details: read-out: % Control
T27 construct: purchased Millipore KinaseProfiler (kinases); Cerep (receptors and ion channels)

[30] = molecular target: T28, MST3 (Homo sapiens, UniProt Q9Y6E0); test: Millipore kinase panel; type: biochemical; details: read-out: % Control
T28 construct: purchased Millipore KinaseProfiler (kinases); Cerep (receptors and ion channels)
T28 sequence (Q9Y6E0 whole entry): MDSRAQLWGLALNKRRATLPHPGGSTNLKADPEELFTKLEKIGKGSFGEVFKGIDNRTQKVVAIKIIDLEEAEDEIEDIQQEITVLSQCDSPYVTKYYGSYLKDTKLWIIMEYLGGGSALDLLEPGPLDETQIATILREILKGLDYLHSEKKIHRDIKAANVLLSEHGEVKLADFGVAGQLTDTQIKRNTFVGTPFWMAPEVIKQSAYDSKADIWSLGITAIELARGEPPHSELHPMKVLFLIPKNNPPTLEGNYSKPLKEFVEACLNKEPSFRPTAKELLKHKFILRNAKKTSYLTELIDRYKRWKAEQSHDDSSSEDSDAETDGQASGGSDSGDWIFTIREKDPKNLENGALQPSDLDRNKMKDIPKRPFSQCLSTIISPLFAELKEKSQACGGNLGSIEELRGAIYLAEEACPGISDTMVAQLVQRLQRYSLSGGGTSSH

[31] = molecular target: T29, NLK (Homo sapiens, UniProt Q9UBE8); test: Millipore kinase panel; type: biochemical; details: read-out: % Control
T29 construct: purchased Millipore KinaseProfiler (kinases); Cerep (receptors and ion channels)

[32] = molecular target: T30, PAR-1BALPHA (Homo sapiens, UniProt Q7KZI7); test: Millipore kinase panel; type: biochemical; details: read-out: % Control
T30 construct: purchased Millipore KinaseProfiler (kinases); Cerep (receptors and ion channels)

[33] = molecular target: T31, PDGFRBETA (Homo sapiens, UniProt P09619); test: Millipore kinase panel; type: biochemical; details: read-out: % Control
T31 construct: purchased Millipore KinaseProfiler (kinases); Cerep (receptors and ion channels)

[34] = molecular target: T32, PIM-1 (Homo sapiens, UniProt P11309); test: Millipore kinase panel; type: biochemical; details: read-out: % Control
T32 construct: purchased Millipore KinaseProfiler (kinases); Cerep (receptors and ion channels)

[35] = molecular target: T33, PIM-2 (Homo sapiens, UniProt Q9P1W9); test: Millipore kinase panel; type: biochemical; details: read-out: % Control
T33 construct: purchased Millipore KinaseProfiler (kinases); Cerep (receptors and ion channels)

[36] = molecular target: T34, CRAF (Homo sapiens, UniProt P04049); test: Millipore kinase panel; type: biochemical; details: read-out: % Control
T34 construct: purchased Millipore KinaseProfiler (kinases); Cerep (receptors and ion channels)

[37] = molecular target: T35, SNK (Homo sapiens, UniProt Q9NYY3); test: Millipore kinase panel; type: biochemical; details: read-out: % Control
T35 construct: purchased Millipore KinaseProfiler (kinases); Cerep (receptors and ion channels)
T35 sequence (Q9NYY3 whole entry): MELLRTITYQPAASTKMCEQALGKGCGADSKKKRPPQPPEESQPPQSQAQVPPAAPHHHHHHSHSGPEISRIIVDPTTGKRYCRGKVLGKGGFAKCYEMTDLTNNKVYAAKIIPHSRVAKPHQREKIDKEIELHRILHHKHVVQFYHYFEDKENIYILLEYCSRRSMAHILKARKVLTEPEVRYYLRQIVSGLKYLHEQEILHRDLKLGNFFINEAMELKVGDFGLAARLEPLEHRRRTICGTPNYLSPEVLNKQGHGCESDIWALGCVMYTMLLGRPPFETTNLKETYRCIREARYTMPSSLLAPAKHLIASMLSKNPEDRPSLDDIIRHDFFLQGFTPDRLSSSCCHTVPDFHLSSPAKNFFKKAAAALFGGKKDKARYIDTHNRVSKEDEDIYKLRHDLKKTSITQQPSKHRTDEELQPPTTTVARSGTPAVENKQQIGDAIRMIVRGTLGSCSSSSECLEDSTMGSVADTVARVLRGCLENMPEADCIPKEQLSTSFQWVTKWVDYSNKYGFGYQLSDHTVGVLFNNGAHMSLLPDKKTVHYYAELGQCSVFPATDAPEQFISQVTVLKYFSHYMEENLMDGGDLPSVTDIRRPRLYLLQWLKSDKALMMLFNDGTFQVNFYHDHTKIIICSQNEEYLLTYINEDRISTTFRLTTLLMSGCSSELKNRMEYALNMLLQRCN

[38] = molecular target: T36, SRPK2 (Homo sapiens, UniProt P78362); test: Millipore kinase panel; type: biochemical; details: read-out: % Control
T36 construct: purchased Millipore KinaseProfiler (kinases); Cerep (receptors and ion channels)
T36 sequence (P78362 whole entry): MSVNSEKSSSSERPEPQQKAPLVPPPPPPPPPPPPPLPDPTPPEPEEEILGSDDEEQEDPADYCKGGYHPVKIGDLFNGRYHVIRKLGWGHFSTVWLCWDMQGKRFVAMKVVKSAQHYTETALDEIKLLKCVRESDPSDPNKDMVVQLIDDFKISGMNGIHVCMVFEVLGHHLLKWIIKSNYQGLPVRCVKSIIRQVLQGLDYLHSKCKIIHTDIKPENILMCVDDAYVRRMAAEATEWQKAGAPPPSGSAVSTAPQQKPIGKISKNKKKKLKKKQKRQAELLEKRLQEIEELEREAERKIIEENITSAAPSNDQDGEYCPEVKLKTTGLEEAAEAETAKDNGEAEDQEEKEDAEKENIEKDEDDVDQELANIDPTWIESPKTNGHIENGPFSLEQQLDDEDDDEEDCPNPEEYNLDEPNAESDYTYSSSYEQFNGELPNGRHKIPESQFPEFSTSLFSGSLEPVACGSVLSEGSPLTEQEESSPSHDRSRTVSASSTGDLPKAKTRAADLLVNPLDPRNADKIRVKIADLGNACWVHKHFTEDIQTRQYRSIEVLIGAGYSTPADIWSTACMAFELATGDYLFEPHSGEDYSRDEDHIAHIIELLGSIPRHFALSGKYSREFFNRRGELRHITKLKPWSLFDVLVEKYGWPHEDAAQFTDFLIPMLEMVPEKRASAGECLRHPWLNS

[39] = molecular target: T37, TRKB (Homo sapiens, UniProt Q16620); test: Millipore kinase panel; type: biochemical; details: read-out: % Control
T37 construct: purchased Millipore KinaseProfiler (kinases); Cerep (receptors and ion channels)
T37 sequence (Q16620 32-822): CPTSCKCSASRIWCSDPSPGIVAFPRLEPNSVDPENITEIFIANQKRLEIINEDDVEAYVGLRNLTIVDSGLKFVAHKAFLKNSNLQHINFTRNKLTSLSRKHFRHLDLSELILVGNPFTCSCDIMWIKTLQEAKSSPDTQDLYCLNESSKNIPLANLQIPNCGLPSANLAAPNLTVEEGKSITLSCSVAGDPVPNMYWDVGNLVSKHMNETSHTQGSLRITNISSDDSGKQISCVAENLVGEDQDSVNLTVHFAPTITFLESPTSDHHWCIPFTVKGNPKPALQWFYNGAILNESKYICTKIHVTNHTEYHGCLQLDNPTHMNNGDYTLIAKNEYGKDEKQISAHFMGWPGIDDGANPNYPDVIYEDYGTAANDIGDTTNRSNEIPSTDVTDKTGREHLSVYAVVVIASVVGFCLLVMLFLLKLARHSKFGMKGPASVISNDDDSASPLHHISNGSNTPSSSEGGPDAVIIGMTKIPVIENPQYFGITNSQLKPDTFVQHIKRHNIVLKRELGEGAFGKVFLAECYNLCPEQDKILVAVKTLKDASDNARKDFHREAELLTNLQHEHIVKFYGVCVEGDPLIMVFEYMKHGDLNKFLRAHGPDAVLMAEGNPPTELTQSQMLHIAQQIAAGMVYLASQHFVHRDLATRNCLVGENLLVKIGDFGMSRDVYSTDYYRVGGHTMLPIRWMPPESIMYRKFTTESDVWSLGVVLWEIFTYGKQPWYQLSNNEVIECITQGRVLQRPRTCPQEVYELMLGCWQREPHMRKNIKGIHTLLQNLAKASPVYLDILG

[40] = molecular target: T38, ZAP-70 (Homo sapiens, UniProt P43403); test: Millipore kinase panel; type: biochemical; details: read-out: % Control
T38 construct: purchased Millipore KinaseProfiler (kinases); Cerep (receptors and ion channels)

[41] = molecular target: T39, GRK5 (Homo sapiens, UniProt P34947); test: Millipore kinase panel; type: biochemical; details: read-out: % Control
T39 construct: purchased Millipore KinaseProfiler (kinases); Cerep (receptors and ion channels)
T39 sequence (P34947 whole entry): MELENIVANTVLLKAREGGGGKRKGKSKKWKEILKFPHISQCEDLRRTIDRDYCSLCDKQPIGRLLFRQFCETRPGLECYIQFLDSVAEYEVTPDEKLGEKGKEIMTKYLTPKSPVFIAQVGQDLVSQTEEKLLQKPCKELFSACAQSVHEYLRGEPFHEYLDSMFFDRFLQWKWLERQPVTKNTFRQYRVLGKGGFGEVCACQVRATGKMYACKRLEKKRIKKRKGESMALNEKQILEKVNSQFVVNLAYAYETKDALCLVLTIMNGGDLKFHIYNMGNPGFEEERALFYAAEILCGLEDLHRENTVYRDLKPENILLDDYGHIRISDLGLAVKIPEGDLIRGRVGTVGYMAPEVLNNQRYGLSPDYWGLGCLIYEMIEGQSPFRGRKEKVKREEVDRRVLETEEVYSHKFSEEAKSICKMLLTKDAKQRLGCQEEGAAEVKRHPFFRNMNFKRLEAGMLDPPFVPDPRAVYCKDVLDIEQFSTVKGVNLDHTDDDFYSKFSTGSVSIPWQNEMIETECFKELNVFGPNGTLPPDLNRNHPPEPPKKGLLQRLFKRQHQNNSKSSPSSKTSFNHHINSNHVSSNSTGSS

[42] = molecular target: T40, VRK2 (Homo sapiens, UniProt Q86Y07); test: Millipore kinase panel; type: biochemical; details: read-out: % Control
T40 construct: purchased Millipore KinaseProfiler (kinases); Cerep (receptors and ion channels)

[43] = molecular target: T41, PIM-3 (Homo sapiens, UniProt Q86V86); test: Millipore kinase panel; type: biochemical; details: read-out: % Control
T41 construct: purchased Millipore KinaseProfiler (kinases); Cerep (receptors and ion channels)

[44] = molecular target: T42, TXK (Homo sapiens, UniProt P42681); test: Millipore kinase panel; type: biochemical; details: read-out: % Control
T42 construct: purchased Millipore KinaseProfiler (kinases); Cerep (receptors and ion channels)

SMILES: O=C1NCCC12CCN(c1c(Cl)cncc1-c1ccc(N3CCOCC3)cc1)CC2 [Compound 44, 8-(3-Chloro-5-(4-morpholin-4-ylphenyl)pyridin-4-yl)-2,8-diazaspiro[4.5]decan-1-one]
- % Inhibition of Control Specific Binding [1]: -1%
- inhibition at 10 µM [2]: -3%
- inhibition at 10 µM [3]: 1%
- inhibition at 10 µM [4]: 2%
- inhibition at 10 µM [5]: -5%
- inhibition at 10 µM [6]: 10%
- inhibition at 10 µM [7]: 47%
- inhibition at 10 µM [8]: 11%
- inhibition at 10 µM [9]: 12%
- inhibition at 10 µM [10]: 42%
- inhibition at 10 µM [11]: -1%
- inhibition at 10 µM [12]: 11%
- inhibition at 10 µM [13]: 0%
- inhibition at 10 µM [14]: -13%
- remaining activity at 1 µM [15]: -2%
- remaining activity at 1 µM [16]: -1%
- % Control [17]: 16%
- remaining activity at 1 µM [18]: 0%
- remaining activity at 1 µM [19]: 7%
- remaining activity at 1 µM [20]: 10%
- remaining activity at 1 µM [21]: -6%
- remaining activity at 1 µM [22]: 10%
- remaining activity at 1 µM [23]: -7%
- remaining activity at 1 µM [24]: -39%
- remaining activity at 1 µM [25]: 2%
- remaining activity at 1 µM [26]: -14%
- remaining activity at 1 µM [27]: 18%
- remaining activity at 1 µM [28]: -10%
- remaining activity at 1 µM [29]: 1%
- remaining activity at 1 µM [30]: 34%
- remaining activity at 1 µM [31]: 17%
- remaining activity at 1 µM [32]: -6%
- remaining activity at 1 µM [33]: 13%
- remaining activity at 1 µM [34]: 1%
- remaining activity at 1 µM [35]: 7%
- remaining activity at 1 µM [36]: -1%
- remaining activity at 1 µM [37]: -5%
- remaining activity at 1 µM [38]: 10%
- remaining activity at 1 µM [39]: 2%
- remaining activity at 1 µM [40]: 13%
- remaining activity at 1 µM [41]: 0%
- remaining activity at 1 µM [42]: -5%
- remaining activity at 1 µM [43]: 5%
- remaining activity at 1 µM [44]: 4%
